One assay relates to Mino cells. The assay can be described thus: Antiproliferative effect, MTS cell viability assay, Mino cells. Type of assay: cell-based. The settings on record: Homo sapiens, MINO, Mino mantle cell lymphoma cells; read-out: IC50 (anti-proliferation) Mino cells. In short, it runs like this: (§1)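 MTS read-out, A490 of formazan from metabolically active cells; compound 0–10 μM (0, 0.001, 0.01, 0.1, 1, 10 μM), 72 h exposure.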

Another assay relates to JeKo-1 cells. The assay can be described thus: Antiproliferative effect, MTS cell viability assay, JeKo-1 cells. The note with it: Homo sapiens; JeKo-1 mantle cell lymphoma cells; read-out: IC50 (anti-proliferation) JeKO-1 cells. Type of assay: cell-based. An outline of the steps: as §1
(Tetrazolium dyes change colour on reduction, which living cells bring about.)

The next assay has as its target BTK (Homo sapiens, UniProt Q06187). The assay can be described thus: Degradation of BTK protein in Namalwa cells (Western blot; DC50, Dmax). The note with it: for DC50: cell line not given. A general note: Immunoblotting shows a protein as a band on a membrane.
[1] abbreviates: read-out: DC50 (BTK degradation), concentration giving 50% reduction of BTK expression level.
[2] abbreviates: read-out: Dmax (BTK degradation).

Structures are written as SMILES. Read-outs that look alike come from different tables or passages of the source. A value given as a limit tells only on which side of the number the result lay.

Data on 16 compounds can be found in US12139492B2 (Endotarget Inc., priority 2021, dated 2024).

Chain of BTK (Q06187 whole entry): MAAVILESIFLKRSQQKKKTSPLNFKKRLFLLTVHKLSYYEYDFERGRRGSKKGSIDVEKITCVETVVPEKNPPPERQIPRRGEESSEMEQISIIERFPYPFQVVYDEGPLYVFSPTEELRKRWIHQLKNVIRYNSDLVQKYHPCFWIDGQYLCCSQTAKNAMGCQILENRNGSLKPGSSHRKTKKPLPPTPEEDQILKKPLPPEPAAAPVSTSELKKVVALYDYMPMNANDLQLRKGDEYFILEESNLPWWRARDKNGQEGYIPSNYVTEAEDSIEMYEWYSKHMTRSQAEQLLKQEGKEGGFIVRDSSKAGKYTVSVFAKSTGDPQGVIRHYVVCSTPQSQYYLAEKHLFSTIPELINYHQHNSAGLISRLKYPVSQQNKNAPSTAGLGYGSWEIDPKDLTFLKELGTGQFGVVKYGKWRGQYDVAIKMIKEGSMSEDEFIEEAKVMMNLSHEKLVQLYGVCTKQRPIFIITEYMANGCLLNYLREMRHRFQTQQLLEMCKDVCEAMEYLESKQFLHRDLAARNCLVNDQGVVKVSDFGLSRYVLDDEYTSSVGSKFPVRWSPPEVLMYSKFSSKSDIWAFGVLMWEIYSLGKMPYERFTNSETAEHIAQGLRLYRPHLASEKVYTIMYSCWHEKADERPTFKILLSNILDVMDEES

For `NC(=O)c1c(-c2ccc(Oc3ccccc3)cc2)nn2c1NCCC2C1CCN(C2CCN(CC3CCN(c4ccc5c(c4)CN(C4CCC(=O)NC4=O)C5=O)CC3)CC2)CC1` (centres unmarked) [Compound 306, 7-(1′-((1-(2-(2,6-dioxopiperidin-3-yl)-1-oxoisoindolin-5-yl)piperidin-4-yl)methyl)-[1,4′-bipiperidin]-4-yl)-2-(4-phenoxyphenyl)-4,5,6,7-tetrahydropyrazolo[1,5-a]pyrimidine-3-carboxamide], the IC50 with Mino cells and in the assay on JeKo-1 cells was 1 to 10 µM throughout. Moreover, on BTK, the Dmax – broadly, the greatest extent of degradation seen – was greater than 90%. The DC50 (in general, the midpoint of the concentration-degradation curve) on BTK (BTK degradation) was 0.01 to 0.05 µM.

As to `Nc1ncnc2c1c(-c1ccc(Oc3ccccc3)cc1)nn2C1CCN(C2CCN(CCCN3CCC(c4ccc(N5CCC(=O)NC5=O)cc4)CC3)C2)CC1` (centres unmarked) [Compound 576, 1-(4-(1-(3-(3-(4-(4-amino-3-(4-phenoxyphenyl)-1H-pyrazolo[3,4-d]pyrimidin-1-yl)piperidin-1-yl)pyrrolidin-1-yl)propyl)piperidin-4-yl)phenyl)dihydropyrimidine-2,4(1H,3H)-dione], the IC50 in the assay on Mino cells was 1 to 10 µM; with JeKo-1 cells, less than 1 µM. On BTK (setting [1]), the DC50 was less than 0.01 µM. Moreover, the Dmax on BTK (setting [2]) was greater than 90%.

`Nc1ncnc2c1c(-c1ccc(Oc3ccccc3)cc1)nn2C1CCN(C2CCN(C(=O)N3CCN(C4CCN(c5ccc6c(c5)C(=O)N(C5CCC(=O)NC5=O)C6=O)CC4)CC3)CC2)CC1` (centres unmarked) [Compound 233, 5-(4-(4-(4-(4-amino-3-(4-phenoxyphenyl)-1H-pyrazolo[3,4-d]pyrimidin-1-yl)-[1,4′-bipiperidine]-1′-carbonyl)piperazin-1-yl)piperidin-1-yl)-2-(2,6-dioxopiperidin-3-yl)isoindoline-1,3-dione]: the IC50 with Mino cells and with JeKo-1 cells was 1 to 10 µM each time. At BTK, the Dmax was greater than 75%. Further, the 50% degradation concentration (DC50) on BTK (BTK degradation) was greater than 0.05 µM.

For `Nc1ncnc2c1c(-c1ccc(Oc3ccccc3)cc1)nn2C1CCN(C2CCN(C(=O)N3CCN(CCN4CCN(c5ccc6c(c5)C(=O)N(C5CCC(=O)NC5=O)C6=O)CC4)CC3)CC2)CC1` (centres unmarked) [Compound 245], the IC50 with Mino cells and in the assay on JeKo-1 cells was 1 to 10 µM each time. On BTK, this compound had a maximal degradation (Dmax) greater than 75%. In addition, the 50% degradation concentration (DC50) on BTK (BTK degradation) is 0.01 to 0.05 µM.

Turning to `Nc1ncnc2c1c(-c1ccc(Oc3ccccc3)cc1)nn2C1CCN(C2CCN(C(=O)N3CCN(CCCN4CCC(c5ccc6c(c5)CN(C5CCC(=O)NC5=O)C6=O)CC4)CC3)CC2)CC1` (centres unmarked) [Compound 262, 3-(5-(1-(3-(4-(4-(4-amino-3-(4-phenoxyphenyl)-1H-pyrazolo[3,4-d]pyrimidin-1-yl)-[1,4′-bipiperidine]-1′-carbonyl)piperazin-1-yl)propyl)piperidin-4-yl)-1-oxoisoindolin-2-yl)piperidine-2,6-dione], the IC50 in the assay on Mino cells is greater than 10 µM; with JeKo-1 cells, 1 to 10 µM. The Dmax at BTK is greater than 75%. Moreover, the half-maximal degradation concentration (DC50) at BTK (BTK degradation) is greater than 0.05 µM.

Take `Nc1ncnc2c1c(-c1ccc(Oc3ccccc3)cc1)nn2C1CCN(C2CCN(CCN3CCC(c4ccc(N5CCC(=O)NC5=O)cc4)CC3)CC2)CC1` [Compound 569, 1-(4-(1-(2-(4-(4-amino-3-(4-phenoxyphenyl)-1H-pyrazolo[3,4-d]pyrimidin-1-yl)-[1,4′-bipiperidin]-1′-yl)ethyl)piperidin-4-yl)phenyl)dihydropyrimidine-2,4(1H,3H)-dione]: the IC50 with Mino cells and in the assay on JeKo-1 cells was 1 to 10 µM each time. Besides, the 50% degradation concentration (DC50) at BTK (setting [1]) was in the range of 0.01 to 0.05 µM. Further, at BTK (setting [2]), the Dmax was greater than 90%.

As for `Nc1ncnc2c1c(-c1ccc(Oc3ccccc3)cc1)nn2[C@@H]1CCCN(CCNC(=O)N2CCN(c3ccc4c(c3)C(=O)N(C3CCC(=O)NC3=O)C4=O)CC2)C1` (stereo partly drawn) [Compound 526, N-(2-((R)-3-(4-amino-3-(4-phenoxyphenyl)-1H-pyrazolo[3,4-d]pyrimidin-1-yl)piperidin-1-yl)ethyl)-4-(2-(2,6-dioxopiperidin-3-yl)-1,3-dioxoisoindolin-5-yl)piperazine-1-carboxamide], the IC50 in the assay on Mino cells and in the assay with JeKo-1 cells was 1 to 10 µM throughout. For the same compound, the DC50 on BTK (setting [1]) was less than 0.01 µM. The Dmax on BTK (setting [2]) was greater than 90%.

Consider `Nc1ncnc2c1c(-c1ccc(Oc3ccccc3)cc1)nn2C1CCN(C2CCN(CC3CN(CC4CN(c5ccc6c(c5)CN(C5CCC(=O)NC5=O)C6=O)C4)C3)CC2)CC1` (centres unmarked) [Compound 438, 3-(5-(3-((3-((4-(4-amino-3-(4-phenoxyphenyl)-1H-pyrazolo[3,4-d]pyrimidin-1-yl)-[1,4′-bipiperidin]-1′-yl)methyl)azetidin-1-yl)methyl)azetidin-1-yl)-1-oxoisoindolin-2-yl)piperidin-2,6-dione], for which the IC50 with Mino cells and in the assay on JeKo-1 cells was 1 to 10 µM throughout. Further, on BTK (setting [1]), the half-maximal degradation concentration (DC50) fell in the range of 0.01 to 0.05 µM. Further, the maximal degradation (Dmax) at BTK (setting [2]) is greater than 90%.

For `Nc1ncnc2c1c(-c1ccc(Oc3ccccc3)cc1)nn2C1CCC(C(=O)NCCN2CCN(c3ccc4c(c3)CN(C3CCC(=O)NC3=O)C4=O)CC2)CC1` (centres unmarked) [Compound 523, 4-(4-amino-3-(4-phenoxyphenyl)-1H-pyrazolo[3,4-d]pyrimidin-1-yl)-N-(2-(4-(2-(2,6-dioxopiperidin-3-yl)-1-oxoisoindolin-5-yl)piperazin-1-yl)ethyl)cyclohexane-1-carboxamide], the IC50 in the assay with Mino cells and in the assay on JeKo-1 cells was less than 1 µM each time. The half-maximal degradation concentration (DC50) on BTK (setting [1]) is less than 0.01 µM. In addition, the Dmax at BTK (setting [2]) was greater than 90%.

With `NC(=O)c1c(-c2ccc(Oc3ccccc3)cc2)nn2c1NCC[C@H]2C1CCN(C(=O)N2CCC(CC3CCN(c4ccc5c(c4)CN(C4CCC(=O)NC4=O)C5=O)CC3)CC2)CC1` (stereo partly drawn) [Compound 294, (7S)-7-(1-(4-((1-(2-(2,6-dioxopiperidin-3-yl)-1-oxoisoindolin-5-yl)piperidin-4-yl)methyl)piperidine-1-carbonyl)piperidin-4-yl)-2-(4-phenoxyphenyl)-4,5,6,7-tetrahydropyrazolo[1,5-a]pyrimidine-3-carboxamide], the IC50 in the assay with Mino cells is less than 1 µM; with JeKo-1 cells it was 1 to 10 µM. On BTK, the Dmax is greater than 90%. The compound further returned a DC50 at BTK (BTK degradation) of 0.01 to 0.05 µM.

For `Nc1ncnc2c1c(-c1ccc(Oc3ccccc3)cc1)nn2C1CCN(CC2CN(CC3CCN(c4ccc5c(c4)CN(C4CCC(=O)NC4=O)C5=O)C3)C2)CC1` (centres unmarked) [Compound 444, 3-(5-(3-((3-((4-(4-amino-3-(4-phenoxyphenyl)-1H-pyrazolo[3,4-d]pyrimidin-1-yl)piperidin-1-yl)methyl)azetidin-1-yl)methyl)pyrrolidin-1-yl)-1-oxoisoindolin-2-yl)piperidine-2,6-dione], the IC50 in the assay with Mino cells and in the assay with JeKo-1 cells was less than 1 µM throughout. At BTK (setting [1]), the 50% degradation concentration (DC50) was less than 0.01 µM. Besides, the Dmax at BTK (setting [2]) is greater than 90%.

With `Nc1ncnc2c1c(-c1ccc(Oc3ccccc3)cc1)nn2C1CCN(CC2CCN(CC3CN(CC4CN(c5ccc6c(c5)C(=O)N(C5CCC(=O)NC5=O)C6=O)C4)C3)C2)CC1` (centres unmarked) [Compound 427, 5-(3-((3-((3-((4-(4-amino-3-(4-phenoxyphenyl)-1H-pyrazolo(3,4-d)pyrimidin-1-yl)piperidin-1-yl)methyl)pyrrolidin-1-yl)methyl)azetidin-1-yl)methyl)azetidin-1-yl)-2-(2,6-dioxopiperidin-3-yl)isoindoline-1,3-dione], the IC50 with Mino cells and in the assay with JeKo-1 cells was 1 to 10 µM in each case. At BTK (Namalwa B lymphocyte cells, various concentrations, 24 hours, Western blot), the “degradation of BTK protein” value was “dose-dependent degradation”. The half-maximal degradation concentration (DC50) on BTK (setting [1]) is greater than 0.05 µM. In addition, the maximal degradation (Dmax) on BTK (setting [2]) is greater than 90%.

Take `Nc1ncnc2c1c(-c1ccc(Oc3ccccc3)cc1)nn2C1CCN(CCN2CCC(CN3CCC(c4ccc(N5CCC(=O)NC5=O)cc4)CC3)C2)CC1` (centres unmarked) [Compound 548, 1-(4-(1-((1-(2-(4-(4-amino-3-(4-phenoxyphenyl)-1H-pyrazolo[3,4-d]pyrimidin-1-yl)piperidin-1-yl)ethyl)pyrrolidin-3-yl)methyl)piperidin-4-yl)phenyl)dihydropyrimidine-2,4(1H,3H)-dione]: the IC50 in the assay with Mino cells and in the assay with JeKo-1 cells was less than 1 µM in each case. The 50% degradation concentration (DC50) on BTK (setting [1]) is less than 0.01 µM. Besides, on BTK (setting [2]), the Dmax is greater than 75%.

As to `NC(=O)c1c(-c2ccc(Oc3ccccc3)cc2)nn2c1NCCC2C1CCN(C2CCN(CCN3CCC(c4ccc5c(c4)C(=O)N(C4CCC(=O)NC4=O)C5=O)CC3)CC2)CC1` (centres unmarked) [Compound 311, 7-(1′-(2-(4-(2-(2,6-dioxopiperidin-3-yl)-1,3-dioxoisoindolin-5-yl)piperidin-1-yl)ethyl)-[1,4′-bipiperidin]-4-yl)-2-(4-phenoxyphenyl)-4,5,6,7-tetrahydropyrazolo[1,5-a]pyrimidine-3-carboxamide], the IC50 with Mino cells and in the assay on JeKo-1 cells was greater than 10 µM each time. The compound also came in with a Dmax at BTK greater than 75%. The compound further had a 50% degradation concentration (DC50) at BTK (BTK degradation) greater than 0.05 µM.

Turning to `Nc1ncnc2c1c(-c1ccc(Oc3ccccc3)cc1)nn2C1CCN(CC2CCN(CC3CN(c4ccc5c(c4)CN(C4CCC(=O)NC4=O)C5=O)C3)C2)CC1` (centres unmarked) [Compound 424, 3-(5-(3-((3-((4-(4-amino-3-(4-phenoxyphenyl)-1H-pyrazolo[3,4-d]pyrimidin-1-yl)piperidin-1-yl)methyl)pyrrolidin-1-yl)methyl)azetidin-1-yl)-1-oxoisoindolin-2-yl)piperidine-2,6-dione], the IC50 in the assay with Mino cells and in the assay with JeKo-1 cells was less than 1 µM throughout. In addition, the 50% degradation concentration (DC50) on BTK (setting [1]) fell in the range of 0.01 to 0.05 µM. Moreover, the greatest degradation seen (Dmax) at BTK (setting [2]) was greater than 90%.

As for `NC(=O)c1c(-c2ccc(Oc3ccccc3)cc2)nn2c1NCCC2C1CCN(C(=O)N2CCN(CCN3CCN(c4ccc5c(c4)CN(C4CCC(=O)NC4=O)C5=O)CC3)CC2)CC1` (centres unmarked) [Compound 282, 7-(1-(4-(2-(4-(2-(2,6-dioxopiperidin-3-yl)-1-oxoisoindolin-5-yl)piperazin-1-yl)ethyl)piperazine-1-carbonyl)piperidin-4-yl)-2-(4-phenoxyphenyl)-4,5,6,7-tetrahydropyrazolo[1,5-a]pyrimidine-3-carboxamide], the IC50 in the assay on Mino cells was 1 to 10 µM; with JeKo-1 cells it was greater than 10 µM. Moreover, the greatest degradation seen (Dmax) on BTK is greater than 90%. Further, the 50% degradation concentration (DC50) at BTK (BTK degradation) lay in the range of 0.01 to 0.05 µM.
